This is an account of results in ChEMBL document CHEMBL5653615 (J Biol Chem, 2013).

Each structure is given as a SMILES string.

Experiment [1] deals with T1, Calcium/calmodulin-dependent protein kinase type IV (Homo sapiens) (UniProt Q16566).
T1 sequence (whole entry): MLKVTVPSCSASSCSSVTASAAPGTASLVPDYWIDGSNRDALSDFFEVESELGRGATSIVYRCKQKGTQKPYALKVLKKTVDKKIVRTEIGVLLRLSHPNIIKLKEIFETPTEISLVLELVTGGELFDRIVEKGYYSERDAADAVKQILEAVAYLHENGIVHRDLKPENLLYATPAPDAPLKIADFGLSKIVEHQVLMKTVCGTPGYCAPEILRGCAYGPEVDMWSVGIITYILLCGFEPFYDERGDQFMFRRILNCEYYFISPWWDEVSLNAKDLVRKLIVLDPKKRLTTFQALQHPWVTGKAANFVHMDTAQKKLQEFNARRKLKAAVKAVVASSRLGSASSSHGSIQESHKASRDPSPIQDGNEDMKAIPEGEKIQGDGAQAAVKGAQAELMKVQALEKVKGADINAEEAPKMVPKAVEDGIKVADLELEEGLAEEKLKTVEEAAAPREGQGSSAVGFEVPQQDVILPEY
The experiment can be described thus: Inhibition of human CAMK4 at 1.82 nM by HotSpot assay relative to control.

Experiment [2] addresses T2, Serine/threonine-protein kinase Nek1 (Homo sapiens) (UniProt Q96PY6).
T2 sequence (whole entry): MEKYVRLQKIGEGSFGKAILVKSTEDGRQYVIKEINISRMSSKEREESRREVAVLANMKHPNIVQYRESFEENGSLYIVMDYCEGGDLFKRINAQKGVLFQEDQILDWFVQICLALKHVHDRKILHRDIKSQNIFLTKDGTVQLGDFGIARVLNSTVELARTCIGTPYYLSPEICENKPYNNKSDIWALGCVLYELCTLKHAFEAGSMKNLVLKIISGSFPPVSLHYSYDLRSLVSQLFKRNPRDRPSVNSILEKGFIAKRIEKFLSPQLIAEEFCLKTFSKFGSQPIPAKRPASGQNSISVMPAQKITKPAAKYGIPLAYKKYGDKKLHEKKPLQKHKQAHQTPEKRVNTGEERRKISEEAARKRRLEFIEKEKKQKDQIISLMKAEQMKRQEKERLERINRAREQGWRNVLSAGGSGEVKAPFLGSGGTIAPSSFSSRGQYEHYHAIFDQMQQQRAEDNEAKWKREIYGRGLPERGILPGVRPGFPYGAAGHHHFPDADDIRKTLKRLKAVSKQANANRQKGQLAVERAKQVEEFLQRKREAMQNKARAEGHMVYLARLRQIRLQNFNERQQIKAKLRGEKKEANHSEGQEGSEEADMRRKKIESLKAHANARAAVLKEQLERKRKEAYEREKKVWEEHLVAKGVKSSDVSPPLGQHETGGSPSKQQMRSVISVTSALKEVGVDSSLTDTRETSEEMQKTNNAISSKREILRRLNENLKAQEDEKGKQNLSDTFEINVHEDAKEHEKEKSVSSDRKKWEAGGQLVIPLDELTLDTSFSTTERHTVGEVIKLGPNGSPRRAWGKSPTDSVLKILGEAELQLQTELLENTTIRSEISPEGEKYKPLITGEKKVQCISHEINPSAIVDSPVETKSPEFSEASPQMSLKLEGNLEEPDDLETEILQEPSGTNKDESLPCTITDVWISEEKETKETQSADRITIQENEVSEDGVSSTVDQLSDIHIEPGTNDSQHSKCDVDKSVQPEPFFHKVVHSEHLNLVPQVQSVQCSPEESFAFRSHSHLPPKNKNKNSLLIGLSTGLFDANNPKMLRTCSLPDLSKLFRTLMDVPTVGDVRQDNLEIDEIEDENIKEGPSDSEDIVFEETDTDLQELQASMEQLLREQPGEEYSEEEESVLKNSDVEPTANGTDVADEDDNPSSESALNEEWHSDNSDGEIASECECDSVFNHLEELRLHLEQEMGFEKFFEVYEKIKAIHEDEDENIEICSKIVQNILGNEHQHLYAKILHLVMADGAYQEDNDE
The experiment can be described thus: Inhibition of human NEK1 at 1.82 nM by HotSpot assay relative to control.

Experiment [3] concerns the target T3, Testis-specific serine/threonine-protein kinase 1 (Homo sapiens) (UniProt Q9BXA7).
T3 sequence (whole entry): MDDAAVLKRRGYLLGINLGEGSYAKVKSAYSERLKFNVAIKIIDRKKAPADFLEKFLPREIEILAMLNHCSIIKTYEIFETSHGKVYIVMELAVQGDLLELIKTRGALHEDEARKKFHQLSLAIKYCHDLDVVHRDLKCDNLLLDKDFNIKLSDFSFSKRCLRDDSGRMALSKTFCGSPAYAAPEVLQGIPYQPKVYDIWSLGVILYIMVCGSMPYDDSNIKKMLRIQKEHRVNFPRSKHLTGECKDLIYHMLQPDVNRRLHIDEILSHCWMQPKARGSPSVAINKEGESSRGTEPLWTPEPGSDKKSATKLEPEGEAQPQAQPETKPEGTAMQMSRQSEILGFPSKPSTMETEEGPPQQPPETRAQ
The experiment is described as follows: Inhibition of human TSSK1 at 1.82 nM by HotSpot assay relative to control.

Experiment [4] has as its target T4, cGMP-dependent protein kinase 1 (Homo sapiens) (UniProt Q13976).
T4 sequence (whole entry): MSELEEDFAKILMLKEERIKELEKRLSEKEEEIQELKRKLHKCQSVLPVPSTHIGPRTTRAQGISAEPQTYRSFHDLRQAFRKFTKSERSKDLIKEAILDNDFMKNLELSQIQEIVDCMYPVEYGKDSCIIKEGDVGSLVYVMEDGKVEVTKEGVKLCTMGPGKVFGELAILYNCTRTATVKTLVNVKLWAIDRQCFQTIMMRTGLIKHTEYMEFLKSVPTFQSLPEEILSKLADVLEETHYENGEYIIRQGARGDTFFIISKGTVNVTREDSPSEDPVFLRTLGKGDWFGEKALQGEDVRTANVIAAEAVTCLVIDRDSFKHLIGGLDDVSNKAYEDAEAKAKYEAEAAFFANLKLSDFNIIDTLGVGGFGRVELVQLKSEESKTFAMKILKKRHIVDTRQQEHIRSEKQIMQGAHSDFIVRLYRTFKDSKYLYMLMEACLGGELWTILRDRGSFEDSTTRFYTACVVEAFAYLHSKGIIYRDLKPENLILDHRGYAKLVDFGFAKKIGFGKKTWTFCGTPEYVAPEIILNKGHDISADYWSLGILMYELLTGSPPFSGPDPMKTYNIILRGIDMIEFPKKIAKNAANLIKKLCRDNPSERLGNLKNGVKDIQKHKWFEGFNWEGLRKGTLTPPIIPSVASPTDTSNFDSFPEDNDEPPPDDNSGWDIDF
The experiment is described as follows: Inhibition of human PKG1b at 1.82 nM by HotSpot assay relative to control.

Experiment [5] deals with Fibroblast growth factor receptor 2 (Homo sapiens) (UniProt P21802). The experiment is described as follows: Inhibition of human FGFR2 at 18.6 nM by HotSpot assay relative to control.
Fibroblast growth factor receptor 2 (Homo sapiens), sequence (P21802 22-821 limits assumed): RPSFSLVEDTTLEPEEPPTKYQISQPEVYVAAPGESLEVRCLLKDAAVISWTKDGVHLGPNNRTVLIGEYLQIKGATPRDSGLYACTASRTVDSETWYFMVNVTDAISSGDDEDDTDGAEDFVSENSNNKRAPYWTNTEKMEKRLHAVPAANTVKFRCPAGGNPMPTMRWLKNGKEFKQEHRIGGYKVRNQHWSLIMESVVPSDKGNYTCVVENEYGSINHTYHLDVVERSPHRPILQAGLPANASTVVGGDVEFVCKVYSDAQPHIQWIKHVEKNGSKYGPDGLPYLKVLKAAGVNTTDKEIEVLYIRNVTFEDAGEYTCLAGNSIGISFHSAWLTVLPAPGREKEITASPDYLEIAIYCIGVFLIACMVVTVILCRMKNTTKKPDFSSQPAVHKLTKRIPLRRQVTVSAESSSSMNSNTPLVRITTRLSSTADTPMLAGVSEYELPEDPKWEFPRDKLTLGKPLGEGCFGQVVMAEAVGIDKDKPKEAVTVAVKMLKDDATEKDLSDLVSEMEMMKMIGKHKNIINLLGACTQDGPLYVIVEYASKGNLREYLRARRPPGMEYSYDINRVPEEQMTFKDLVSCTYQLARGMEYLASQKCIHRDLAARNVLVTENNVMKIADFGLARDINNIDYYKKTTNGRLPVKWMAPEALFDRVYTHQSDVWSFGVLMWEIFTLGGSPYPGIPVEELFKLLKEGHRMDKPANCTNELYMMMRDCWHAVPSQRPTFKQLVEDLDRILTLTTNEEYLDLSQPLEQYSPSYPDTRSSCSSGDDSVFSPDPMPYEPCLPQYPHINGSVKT
The target of experiment [6] is T4, cGMP-dependent protein kinase 1 (Homo sapiens). The experiment can be described thus: Inhibition of human PKG1a at 18.6 nM by HotSpot assay relative to control.

What is called inhibition is the change of the read-out against control, counted positive when it falls. With `C[C@@]1(C(=O)Nc2ccc(F)nc2)CCCN1c1nc(Nc2cc(C3CC3)n[nH]2)c2cccn2n1`, the inhibition in experiment [1] was 3.45%; in experiment [2] it was -2.03%; in experiment [3], 4.11%; in experiment [4] it was -2.16%.

With `C[C@]1(O)C[C@@H](c2nc(-c3ccc4ccc(-c5ccccc5)nc4c3)c3c(N)nccn32)C1`, the inhibition is -3.25% in experiment [5] and 5.49% in experiment [6].
